Measurements taken from ChEMBL document CHEMBL1201862, “PubChem BioAssay data set” (2004).
Calls of active or inactive are those of the source.

How the values were obtained:
Bcl-2-related protein A1 [1] = molecular target: T1, Bcl-2-related protein A1 (Mus musculus, UniProt Q07440); assay: Bfl-1 inhibitors blocking BH3 peptide binding, confirmation, biochemical, TR-FRET, mouse Bfl-1 (AID 621);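 further: TR-FRET binding of GST-Bfl-1 to FITC-labelled Bid peptide via terbium antibody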
T1 sequence (Q07440 whole entry): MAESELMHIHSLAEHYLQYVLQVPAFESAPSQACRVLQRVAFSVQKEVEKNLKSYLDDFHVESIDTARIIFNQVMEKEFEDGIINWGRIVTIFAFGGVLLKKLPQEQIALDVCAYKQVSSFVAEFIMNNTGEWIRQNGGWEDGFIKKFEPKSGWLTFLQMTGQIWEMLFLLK

[2] = molecular target: Glyceraldehyde-3-phosphate dehydrogenase (Homo sapiens, UniProt P04406)
Bcl-2-related protein A1 [3] = molecular target: T1, Bcl-2-related protein A1; assay: Bfl-1 binding inhibitors, SAR follow-up, biochemical, fluorescence polarization (AID 1070)
[4] = inhibitors of Vif binding to APOBEC3G peptide, primary screen, biochemical, TR-FRET, GST-Vif 1-94, biotin-A3G peptide, dose response retest (AID 1117319); type: functional;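 further: TR-FRET signal of purified GST-Vif binding a biotinylated A3G peptide; inhibitors lower the FRET signal by blocking Vif and A3G binding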
[5] = Luminescence Cell-Based Dose Confirmation HTS to Identify Inhibitors of Polyadenylation.; type: functional
Paired box protein Pax-8 = Paired box protein Pax-8 (Homo sapiens, UniProt Q06710); assay: inhibitors of PAX8-driven TPO luciferase reporter, dose response, RMG-I cells, cherry-pick (AID 687027); type: functional, cell-based;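 further: luciferase reporter driven by Pax8 target thyroperoxidase promoter measured by SteadyGlo luminescence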
[6] = A2780 ovarian cancer cell cytotoxicity, dose response, cytotoxicity control, plate reader, dry powder samples (AID 743046); type: functional, cell-based
[7] = cytotoxicity in OVCAR8 ovarian cancer cells, dose response, PAX8 project, cell-based, plate reader, dry powder samples (AID 743197); type: functional; settings: OVCAR-8
[8] = NIH:OVCAR-3 ovarian cancer cell cytotoxicity, dose response, PAX8 inhibitor project, plate reader, dry powder samples (AID 743044); type: functional, cell-based
[9] = cytotoxicity toward Colo320 cells – cell-based, CellTiter-Glo luminescence, IC50, dose response (AID 1117334); type: functional; settings: COLO 320
[10] = CellTiter-Glo luminescent dose response of DLD-1 viability loss (AID 1117352); type: functional
[11] = RKO cell viability reduction, dose response, CellTiter-Glo luminescence (AID 1117322); type: functional
[12] = cytotoxicity toward HT-29 cells – cell-based, CellTiter-Glo luminescence, IC50, dose response (AID 1117330); type: functional
[13] = Concentration-dependent survival of SW480 colon cancer line, luminescence detection with CellTiter-Glo, half-maximal inhibitory concentration (AID 1117338); type: functional
[14] = cytotoxicity toward HCT116 cells – cell-based, CellTiter-Glo luminescence, IC50, dose response (AID 1117332); type: functional; settings: HCT-116
[15] = SNU-C1 cell viability reduction, dose response, CellTiter-Glo luminescence (AID 1117323); type: functional, cell-based
[16] = molecular target: E3 ubiquitin-protein ligase Mdm2 (Homo sapiens, UniProt Q00987); assay: enhancers of MDM2-luciferase reporter signal, concentration-effect titration, project on inhibitors of MDM2 ubiquitin ligase, cellular assay, luminescent readout, 384-well plate format (AID 1394); type: functional;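 further: MDM2 E3 inhibitors raise luminescence so EC50 is for signal enhancement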
[17] = cytotoxicity in HPDE-C7 cells, cell-based, fluorescence, HTS (AID 430); type: functional; settings: Homo sapiens
[18] = cytotoxicity in KRAS-transformed pancreatic duct cells, primary screen, cell-based, fluorescence, HTS (AID 431); type: functional; settings: Homo sapiens;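 further: cell line used: HPDE-C7K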
[19] = molecular target: Bifunctional protein GlmU (Mycobacterium tuberculosis, UniProt P9WMN3); assay: Inhibitors of Mycobacterial Glucosamine-1-phosphate acetyl transferase (GlmU). Secondary screen.; parameters: species or system Mycobacterium tuberculosis H37Rv
[20] = molecular target: Disintegrin and metalloproteinase domain-containing protein 17 (Homo sapiens, UniProt P78536); assay: ADAM17 protease inhibitors, dose response, counter-screen for ADAM10 exosite inhibitor project, biochemical, quenched FRET substrate (AID 743253)
[21] = ADAM10 inhibitors, peptide cleavage, dose response, biochemical, QFRET (AID 743254);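 further: ADAM10 enzyme with the DM2 quenched FRET peptide as substrate; EDANS fluorescence gain as the protease cuts the substrate; inhibitor potency against ADAM10 proteolytic activity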
Prothrombin = Prothrombin (Homo sapiens, UniProt P00734); assay: Thrombin 1536 HTS Dose Response Confirmation. [Related pubchem assays: 1046 (Thrombin 1536 HTS; hits were confirmed in this assay)]; type: functional

Glyceraldehyde-3-phosphate dehydrogenase, sequence (P04406 whole entry): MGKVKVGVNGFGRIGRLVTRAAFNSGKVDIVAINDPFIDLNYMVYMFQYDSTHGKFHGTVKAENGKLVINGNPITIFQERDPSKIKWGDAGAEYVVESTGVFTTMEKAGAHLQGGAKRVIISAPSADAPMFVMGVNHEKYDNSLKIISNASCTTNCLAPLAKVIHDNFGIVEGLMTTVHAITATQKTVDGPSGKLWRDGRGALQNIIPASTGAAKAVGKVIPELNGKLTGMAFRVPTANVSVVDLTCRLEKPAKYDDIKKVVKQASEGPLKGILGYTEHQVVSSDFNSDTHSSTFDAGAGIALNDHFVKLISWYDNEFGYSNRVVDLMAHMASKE
Paired box protein Pax-8, sequence (Q06710 whole entry): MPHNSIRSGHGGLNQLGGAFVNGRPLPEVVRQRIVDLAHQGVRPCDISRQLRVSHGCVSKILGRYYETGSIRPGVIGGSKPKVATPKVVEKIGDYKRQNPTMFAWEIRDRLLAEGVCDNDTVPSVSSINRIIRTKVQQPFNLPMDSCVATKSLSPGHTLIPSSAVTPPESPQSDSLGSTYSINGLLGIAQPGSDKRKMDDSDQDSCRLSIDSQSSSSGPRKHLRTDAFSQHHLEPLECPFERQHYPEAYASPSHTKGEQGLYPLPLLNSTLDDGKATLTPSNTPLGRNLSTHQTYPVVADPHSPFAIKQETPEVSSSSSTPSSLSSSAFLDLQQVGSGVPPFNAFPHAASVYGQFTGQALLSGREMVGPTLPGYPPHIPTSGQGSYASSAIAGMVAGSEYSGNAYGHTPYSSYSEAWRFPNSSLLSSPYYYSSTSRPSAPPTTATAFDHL
E3 ubiquitin-protein ligase Mdm2, sequence (Q00987 whole entry): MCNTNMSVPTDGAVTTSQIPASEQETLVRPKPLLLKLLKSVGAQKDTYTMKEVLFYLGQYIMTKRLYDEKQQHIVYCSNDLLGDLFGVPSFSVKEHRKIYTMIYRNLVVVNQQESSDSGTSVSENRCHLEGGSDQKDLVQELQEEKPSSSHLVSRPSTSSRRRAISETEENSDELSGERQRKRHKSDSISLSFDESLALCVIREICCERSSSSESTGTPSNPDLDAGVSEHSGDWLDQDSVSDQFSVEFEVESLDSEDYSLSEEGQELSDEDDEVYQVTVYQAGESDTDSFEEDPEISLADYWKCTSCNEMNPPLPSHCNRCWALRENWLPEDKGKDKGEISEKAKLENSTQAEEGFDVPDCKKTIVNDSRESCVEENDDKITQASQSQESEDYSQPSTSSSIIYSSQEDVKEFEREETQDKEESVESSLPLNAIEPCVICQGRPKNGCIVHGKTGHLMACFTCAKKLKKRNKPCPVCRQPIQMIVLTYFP
Disintegrin and metalloproteinase domain-containing protein 17, sequence (P78536 whole entry, the tested form may be a part): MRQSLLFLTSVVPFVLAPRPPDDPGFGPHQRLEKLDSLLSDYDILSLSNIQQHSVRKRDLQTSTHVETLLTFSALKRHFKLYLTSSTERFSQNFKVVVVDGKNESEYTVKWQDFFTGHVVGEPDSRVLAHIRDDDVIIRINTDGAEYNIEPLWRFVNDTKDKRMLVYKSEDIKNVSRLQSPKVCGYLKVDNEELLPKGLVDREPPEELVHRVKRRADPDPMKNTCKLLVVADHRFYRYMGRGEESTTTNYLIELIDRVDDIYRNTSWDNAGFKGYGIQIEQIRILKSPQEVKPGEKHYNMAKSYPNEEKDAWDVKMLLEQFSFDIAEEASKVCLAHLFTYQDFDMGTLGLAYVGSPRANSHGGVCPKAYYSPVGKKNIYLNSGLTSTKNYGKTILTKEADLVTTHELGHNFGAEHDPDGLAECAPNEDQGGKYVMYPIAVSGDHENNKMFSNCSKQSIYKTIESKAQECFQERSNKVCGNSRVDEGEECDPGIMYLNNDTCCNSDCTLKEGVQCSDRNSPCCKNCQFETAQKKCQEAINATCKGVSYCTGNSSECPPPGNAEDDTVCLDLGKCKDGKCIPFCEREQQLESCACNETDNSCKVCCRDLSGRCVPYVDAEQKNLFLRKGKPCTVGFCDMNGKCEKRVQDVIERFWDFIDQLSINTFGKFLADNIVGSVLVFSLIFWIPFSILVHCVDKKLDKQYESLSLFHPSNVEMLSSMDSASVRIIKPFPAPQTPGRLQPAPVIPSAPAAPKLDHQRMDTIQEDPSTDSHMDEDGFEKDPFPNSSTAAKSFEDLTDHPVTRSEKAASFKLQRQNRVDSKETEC
Bifunctional protein GlmU, sequence (P9WMN3 whole entry, the tested form may be a part): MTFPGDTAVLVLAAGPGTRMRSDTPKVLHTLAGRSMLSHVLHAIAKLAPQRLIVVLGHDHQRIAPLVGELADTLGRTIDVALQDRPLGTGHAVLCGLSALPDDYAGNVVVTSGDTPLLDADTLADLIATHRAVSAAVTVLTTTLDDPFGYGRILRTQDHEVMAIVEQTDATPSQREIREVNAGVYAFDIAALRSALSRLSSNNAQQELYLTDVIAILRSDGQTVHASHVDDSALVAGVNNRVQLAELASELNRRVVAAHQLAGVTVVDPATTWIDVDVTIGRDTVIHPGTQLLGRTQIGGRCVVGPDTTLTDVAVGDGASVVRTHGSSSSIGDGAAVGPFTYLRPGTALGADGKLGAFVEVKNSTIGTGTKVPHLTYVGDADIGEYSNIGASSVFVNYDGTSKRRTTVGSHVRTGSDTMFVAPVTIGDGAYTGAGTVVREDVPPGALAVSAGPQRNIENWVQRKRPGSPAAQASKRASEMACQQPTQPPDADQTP

With CCCCN1CCN(C2=C(Cl)C(=O)N(c3ccc(Cl)c(Cl)c3)C2=O)CC1 the IC50 (Bcl-2-related protein A1 [1]) was 3.28 µM (active), the IC50 [2] was > 100 µM (not active) and the IC50 (Bcl-2-related protein A1 [3]) was 10.5 µM (active).
For CN(C)c1ccc(/C=N\NC(=O)c2csnn2)cc1, the IC50 [4] was > 100 µM (active).
For O=C(COC(=O)Cc1ccc(S(=O)(=O)N2CCOCC2)s1)NCc1ccccc1, the EC50 [5] was 39.8 µM (active).
For C[C@H]1CCCCO[C@@H](CN(C)S(=O)(=O)c2cccs2)[C@@H](C)CN([C@@H](C)CO)C(=O)c2cc(NS(=O)(=O)c3ccc(Cl)cc3)ccc2O1, the AC50 (Paired box protein Pax-8) was 7.93 µM (active), the AC50 [6] was 14.1 µM (active) and the AC50 [7] was > 70 µM (inactive). For the same molecule, the AC50 [8] was 42.6 µM (active).
With Cc1c(C)c2c(c(C)c1O)CC[C@@](C)(CCC[C@H](C)CCC[C@H](C)CCCC(C)C)O2 [alpha-TOCHOPHEROL] the IC50 [9] was > 20 µM (inactive), the IC50 [10] was > 20 µM (inactive) and the IC50 [11] was 2.61 µM (active). The IC50 [12] was > 20 µM (inactive), the IC50 [13] was > 20 µM (inactive) and the IC50 [14] was > 20 µM (inactive). The IC50 [15] was > 20 µM (inactive).
For COC(=O)C1=C(C(=O)OC)[C@@H]2N(C)c3ccc(OC)cc3[C@@]23C[C@@H](C(=O)OC)NC3=N1, the EC50 [16] was 1.09 µM (not active).
In the case of Cc1ccc2nc(-c3cccc(NC(=O)c4ccc5c(c4)OCCO5)c3)oc2c1, the EC50 [17] is reported as 6.12 µM (active) and the EC50 [18] is reported as 6.12 µM (active).
In the case of CN1CCN(C(=S)NC(=O)c2ccc(Cl)cc2)CC1, the IC50 [19] is reported as 132 µM (active).
In the case of Cc1ccc(-n2c(Cc3cccs3)nnc2SCC(=O)Nc2ccc(OCc3ccccc3)cc2)cc1, the IC50 [20] is reported as > 69.5 µM (inactive) and the IC50 [21] is reported as > 69.5 µM (inactive).
With Cc1ccc(Cl)c(N2C(=O)C(Cl)=C(N3CCOCC3)C2=O)c1Cl the IC50 (Bcl-2-related protein A1 [1]) was > 100 µM (not active), the IC50 [2] was > 10 µM (inconclusive) and the IC50 (Bcl-2-related protein A1 [3]) was > 100 µM (not active).
For COCCNc1nnc(SCC(=O)c2c[nH]c3ccccc23)s1, the IC50 (Prothrombin) was > 50 µM (not active).
